Reference: PubChem BioAssay (NCI)
Values joined by “and” are separate entries in the source; they are usually repeats but may differ in a detail not shown here. Identical values can stand only once.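 In this assay, cells in 96-well plates receive the compound at five concentrations for 48 hours. Endpoints are linearly interpolated between the surrounding concentrations. The concentration for 50% growth inhibition is given as GI50. TGI is the concentration that stops growth completely.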

Experiments:
Assay in all cases: growth of human tumour cells (NCI), 48 h
[1] = tested on: A549 NSCLC
[2] = tested on: COLO 205 colon
[3] = tested on: K-562 leukemia
[4] = tested on: OVCAR-3 ovarian
[5] = tested on: RPMI-8226 leukemia
[6] = tested on: DU-145 prostate
[7] = tested on: MDA-MB-435
[8] = tested on: NCI/ADR-RES ovarian
[9] = tested on: PC-3 prostate
[10] = tested on: T-47D breast

Structure (SMILES) | TGI [1] [µM] | TGI [2] [µM] | TGI [3] [µM] | TGI [4] [µM] | TGI [5] [µM] | TGI [6] [µM] | TGI [7] [µM] | TGI [8] | TGI [9] [µM] | TGI [10] [µM] | GI50 [1] [µM] | GI50 [2] [µM] | GI50 [6] [µM] | GI50 [7] [µM] | GI50 [8] [µM] | GI50 [4] [µM] | GI50 [9] [µM] | GI50 [5] [µM] | GI50 [10] [µM] | GI50 [3] [µM]
CN(CC(=O)O)S(=O)(=O)c1ccc(Cl)cc1 | > 100 | > 100 | > 100 | > 100 | > 100 | – | – | – | – | – | – | – | – | – | – | – | – | – | – | –
c1ccc2c(CNCCCN3CCN(CCCNCc4cccc5ccccc45)CC3)cccc2c1 | 4.25 | 3.85 | – | 9.53 | – | – | – | – | – | – | – | – | – | – | – | – | – | – | – | –
N#CCC(=O)N/N=C(/C(=O)Nc1ccccc1)C1C(=O)N(c2ccccc2)N=C1N (stereo not drawn) | > 100 | > 100 | > 100 | > 100 | > 100 | – | – | – | – | – | – | – | – | – | – | – | – | – | – | –
Cc1cc2c(=O)cc(-c3ccc(O)cc3)oc2c(C(=O)O)c1C | > 100 | > 100 | > 100 | > 100 | > 100 | – | – | – | – | – | – | – | – | – | – | – | – | – | – | –
COc1ccc(C(=O)O[C@@H]2CCN3CC[C@H](C)[C@H]23)cc1 | > 100 | > 100 | – | > 100 | > 100 | > 100 | > 100 | > 100 µM | > 100 | > 100 | – | – | – | – | – | – | – | – | – | –
CC12OC(C(=O)C13CC3)C1C(=O)c3cccc(O)c3C(=O)C12 (stereo not drawn) | > 100 | > 96.2 | – | 19.9 | > 100 | 56.2 | > 57.7 | 25.3 µM | 34.3 | > 70.6 | 28.7 | 15.5 | 15.3 | 16.9 | 6.9 | 2.49 | 10.3 | 2.22 | 23.3 | –
Nc1cc2c(c3ccccc13)C(CCl)CN2C(=O)c1cc2cc(NC(=O)c3cc4ccccc4o3)ccc2[nH]1 (stereo not drawn) | – | – | – | – | – | 142 | < 0.11 | 0.0078 µM and < 0.11 µM | – | – | – | – | – | > 0.11 | > 0.11 | – | – | – | > 0.11 | –
CC1=CC=C2C(C)(C)CC[C@@H]3OC(=O)[C@H]1[C@]23C | > 100 | > 100 | > 100 | > 100 | – | – | – | – | – | – | – | – | – | – | – | – | – | – | – | –
COC(=O)Nc1nc2ccc(C(=O)C3CC3)cc2[nH]1 | > 100 | 10.4 | > 100 | 0.448 | 0.696 | 1.11 | 0.324 | 9.82 µM | > 100 | – | 0.452 | 0.392 | 0.256 | 0.134 | 0.329 | 0.207 | 0.346 | 0.219 | – | 0.417
CCOC(=O)c1c2c(n(Cc3ccccc3)c1C)-c1nc[nH]c1C(=O)C2=O | 25.9 | 35.1 | 19.1 | 26.8 | 10.7 | 21.5 | 31.3 | – | – | 30.7 | 11.8 | 20.2 | 9.83 | 16.9 | – | 13.9 | – | 1.1 | 11.4 | 3.08
Cc1cc2c(=O)cc(-c3ccc(C(=O)O)cc3)oc2c(C(N)=O)c1C | > 100 | > 100 | > 100 | > 100 | > 100 | – | – | – | – | – | – | – | – | – | – | – | – | – | – | –
Cc1cc2c(=O)cc(-c3ccc(Cl)cc3Cl)oc2c(C(=O)O)c1C | > 100 | > 100 | > 100 | > 100 | > 100 | – | – | – | – | – | – | – | – | – | – | – | – | – | – | –
Nc1n[nH]c2ccc([C@H]3[C@@H]4C5CCC(C5)[C@@H]4c4c(ccc5[nH]ncc45)N3S(=O)(=O)C3CC3)cc12 (stereo partly drawn) | > 25.6 | 6.31 | – | 7.16 | 7.46 | 26.7 | 1.35 | > 50 µM | 9.85 | – | 0.237 | 0.193 | 0.212 | 0.141 | 0.231 | 0.181 | 0.185 | 0.176 | – | 0.115
COc1ncnn2ccc(-c3cnc4nc(C)n(Cc5nnc(C(C)F)o5)c4c3)c12 (stereo not drawn) | > 100 | 0.468 | > 100 | – | > 45.6 | > 100 | > 100 | > 29.2 µM | > 100 | > 100 | 0.136 | 0.11 | 0.288 | 0.223 | 0.409 | – | 0.281 | 0.201 | 0.0853 | 0.163
O=C(NC(=S)Nc1ccc(-c2nc3ccccc3[nH]2)cc1)c1ccc2ccccc2c1 | > 100 | 46.5 | > 100 | 10.1 | 9.29 | > 100 | > 100 | > 100 µM | 35.5 | – | 3.79 | 4.98 | 3.9 | 4.27 | 4.52 | 3.22 | 3.26 | 2.62 | – | 13.3
CCC(CO)COC(=O)/C=C/C(=O)OCC(CC)CO (stereo not drawn) | > 100 | > 100 | > 100 | > 100 | > 100 | – | – | – | – | – | – | – | – | – | – | – | – | – | – | –
O=[N+]([O-])c1cccc(C=NC23CC4CC(CC(C4)C2)C3)c1 | > 100 | > 100 | > 100 | > 100 | – | – | – | – | – | – | – | – | – | – | – | – | – | – | – | –
CCOc1ccc(N=C2NC(=O)C(CC(=O)Nc3ccc(Cl)cc3Cl)S2)cc1 (stereo not drawn) | > 100 | > 100 | > 100 | > 100 | > 100 | – | – | – | – | – | – | – | – | – | – | – | – | – | – | –
Clc1ccc(Nc2ncnc3ccccc23)cc1 | > 100 | > 100 | > 100 | > 100 | – | > 100 | > 100 | > 100 µM | > 100 | > 100 | 47.6 | 68.9 | 26.4 | 42.2 | 53.7 | 34.9 | 47 | – | 80 | 28
CN1C(=O)CNS1(=O)=O | > 100 | – | > 100 | > 100 | > 100 | – | – | – | – | – | – | – | – | – | – | – | – | – | – | –
CNC(=O)N(CCCC(NC(C)=O)C(=O)NCc1ccccc1)Cc1ccccc1 (stereo not drawn) | > 100 | > 100 | > 100 | > 100 | > 100 | – | – | – | – | – | – | – | – | – | – | – | – | – | – | –
